Details: rat; liver microsomes; pH 7.4; 15.0 min; 1.0 µM

| SMILES | half-life |
| --- | --- |
| Cc1ccc(-c2cc(C(=O)O)c3ccccc3n2)cc1 | 22.4 min |
| NC(=O)c1sc2nc3c(c(-c4cccs4)c2c1N)CCCC3 | 2 min |
| Cc1ccc(OCCn2c(CCNC(=O)c3ccccc3Br)nc3ccccc32)cc1 | 1.6 min |
| CCOC(=O)CCNc1cc(N2CCc3ccccc3CC2)nc(-c2cccnc2)n1 | 2.31 min |
| CCNC(=O)C[C@@H]1N=C(c2ccc(Cl)cc2)c2cc(OC)ccc2-n2c(C)nnc21 | > 30 min |
| O=C(NCCCNc1nc(Nc2cccc(NC(=O)N3CCCC3)c2)ncc1I)c1cccs1 | 1.87 min |
| COc1cc2nc(N3CCCC3)nc(NCCCCCN3CCCC3)c2cc1OC | > 30 min |
| O=[S+]([O-])(Nc1ccc(N2CCNCC2)cc1)c1ccc(NCc2ccc(Br)cc2O)cc1 | > 30 min |
| O=c1cc(N2CCOCC2)oc2c1ccc1ccccc12 | > 30 min |
| NC(=O)C1CCN(c2nc(-c3cccc(C(F)(F)F)c3)cs2)CC1 | 1.99 min |
| COc1ccc(CNC(=O)c2sc3nc(C)cc(C)c3c2N)cc1 | 8.47 min |
| Cc1ccc(C2=CSC(NC(=O)CSc3nncn3C)=NN2)cc1 | 1.8 min |
| CN1CCN(C(=O)Cc2c[nH]c3ncc(-c4ccccc4Oc4ccccc4)cc23)CC1 | 1.72 min |
| N#Cc1cccc(NC(=O)c2sc3nc4c(cc3c2N)N2CCC4CC2)c1 | 25.6 min |
| Fc1ccc(-c2csc3ncnc(Sc4nnnn4-c4ccccc4)c23)cc1 | 1.6 min |
| COc1cc(Cl)cn2c(-c3cccc(NC4CNC4)n3)cnc12 | > 30 min |

| SMILES | half-life |
| --- | --- |
| O=C(Nc1cc(Cc2ccccc2)ccn1)c1ccc(-c2cccc([N+](=O)[O-])c2)o1 | 4.8 min |
| O=C(O)Cc1ccc2oc(-c3ccc(NC(=O)/C=C/c4ccc(Br)cc4)c(F)c3)nc2c1 | > 30 min |
| CCCN1C(CC(C)C)=NS(=O)(=O)c2cc(NC(=O)c3ccco3)ccc21 | 9.21 min |
| C[C@H]1CCC[C@H](O)CCC/C=C/c2cc(O)cc(O)c2C(=O)O1 | 15.2 min |
| COc1ccc(C(=O)N[C@@H]2CCC[C@@H]2C(=O)N2CCC(Cc3ccccc3)CC2)cc1 | 2.66 min |
| Cc1cnc(NC(=O)c2ccc(-c3cccc([N+](=O)[O-])c3)o2)s1 | 10 min |
| CC(C)(C)C1CCc2nc(NC(=O)c3cccc(Cl)c3)sc2C1 (stereo unspecified) | 20 min |
| Cc1cc(C)nc(NC(=S)N2CCN(c3ccc(Cl)cc3[N+](=O)[O-])CC2)c1 | 15 min |
| Cc1ccc2oc3c(c(=O)c2c1)C(c1ccc(O)cc1)N(CCCN(C)C)C3=O (stereo unspecified) | > 30 min |
| CCCNC(=O)Nc1ccc(Oc2ncnc3cc(OC)c(OC)cc23)cc1Cl | > 30 min |
| Cc1ccc(S(=O)(=O)Nc2ccccc2C(=O)Nc2ccc(-c3ccccc3)cc2)cc1 | 7.3 min |
| Cc1cc(-c2nnc3n2CCCCC3)c(C)n1-c1cccc2ccccc12 | 2.1 min |
| COc1ccc(-n2c(C)cc(C3=NNC(=NC4CC4)SC3)c2C)cc1 | 11.8 min |
| Cc1c(CN(C)c2cc(C3CC(O)C3)nc(N)n2)[nH]c2ccccc12 (stereo unspecified) | 15 min |
| O=C(NCc1ccncc1)c1nc(-c2cccnc2)c2cnccn12 | > 30 min |

More lines, now with the values ahead:

| half-life | SMILES |
| --- | --- |
| 1.31 min | Cc1ccc(-c2nnc(Nc3ccc(Br)cc3)c3ccccc23)cc1S(=O)(=O)N1CCN(C)CC1 |
| 1.03 min | Cc1ccc(NS(=O)(=O)c2c(C)[nH]c(C)c2C(=O)N2CCCC2)cc1Cl |
| > 30 min | C[S+](=O)([O-])c1ccc(-c2nc(C(=O)NCc3cccnc3)n3ccccc23)cc1 |
| > 30 min | O=C(Nc1ccc2oc(-c3ccccc3F)nc2c1)c1ccc([N+](=O)[O-])o1 |
| 8.03 min | CC(Nc1nc(N2CCN(S(C)(=O)=O)CC2)nc2ccccc12)c1ccccc1 (stereo unspecified) |
| > 30 min | Fc1cc(Nc2nc(-c3ccncc3)nc3ccccc23)ccc1-c1cccc(OC(F)F)c1 |
| 5.3 min | COc1ccc(C2=Nc3ccc(C)cc3C(c3ccccc3)N2CC(=O)NN)cc1 (stereo unspecified) |
| 1.69 min | CSc1nnc2c3ccccc3n(CCc3ccccc3)c2n1 |
| 3.17 min | COc1ccc(CN2CCNc3cc(Nc4ccccc4)ncc3C2)cc1 |
| 15.7 min | Cn1ccc2c(C(=O)NCc3cccnc3)nc(-c3ccc(CO)cc3)cc21 |
| 2.12 min | CC1CCC(NC(=O)c2ccc3c(c2)N(Cc2ccccc2F)C(=O)c2ccccc2S3)CC1 (stereo unspecified) |
| > 30 min | O=C(NCc1ccc(S(=O)(=O)c2cccc(C(F)(F)F)c2)cc1)c1cnc2[nH]ncc2c1 |
| 27.9 min | COc1cccc(C(=O)Nc2ccc3oc(-c4ccc5ccccc5c4)nc3c2)c1 |
| > 30 min | CC(=O)Nc1cccc(-c2csc(Nc3cc(C)ccn3)n2)c1 |
| 2.55 min | CC(C(O)c1ccc(O)cc1)N1CCC(Cc2ccccc2)CC1 (stereo unspecified) |
| > 30 min | Fc1cc(-c2nc(Nc3ccc(F)c(F)c3)c3ccccc3n2)ccn1 |
| 21 min | COc1ccc(NC(=O)C2=C(C)NC(Nc3nc4ccccc4o3)=NC2c2ccccc2Br)cc1 (stereo unspecified) |
| 8.85 min | Cc1ccc(S(=O)(=O)Nc2ccccc2C(=O)Nc2nc(-c3ccc(Cl)cc3)cs2)cc1 |
| 2.7 min | CC1CCc2ccc(F)cc2N1S(=O)(=O)c1cccs1 (stereo unspecified) |
| 27 min | CC1=C(C(=O)Nc2nccs2)C(c2ccccc2Br)N=C(Nc2nc3ccccc3o2)N1 (stereo unspecified) |
| 1.8 min | CCOc1ccc(CCNC(=O)c2cc3sccc3n2Cc2ccc(F)cc2F)cc1OCC |
| 6.1 min | CCc1ccc(NC(=O)c2[nH]c(C)c(C(C)=O)c2C)cc1S(=O)(=O)Nc1cccc(C#N)c1 |
| > 30 min | O=C(O)c1cccc(-c2noc(-c3ccccc3F)n2)c1 |

| half-life | SMILES |
| --- | --- |
| 15 min | Cc1cc(-c2nnc3n2CCCCC3)c(C)n1-c1cccnc1 |
| 2.4 min | COc1cccc(CNc2ccc([S+](=O)([O-])Nc3ccccc3)cc2)c1Cl |
| 2.13 min | Nc1ccccc1OCCn1c(CCNC(=O)C2CCCCC2)nc2ccccc21 |
| 1.66 min | Cc1cccc(-c2csc(N3CCC(C(N)=O)CC3)n2)c1 |
| 1.7 min | Cc1ccc(CSCc2ccc(C(=O)NC3CC3)o2)cc1 |
| 4.16 min | CCOc1ccc(NC(=O)CSC2=Nc3ccccc3C3=NC(CC(=O)NCc4cccs4)C(=O)N23)cc1 (stereo unspecified) |
| 2.3 min | Clc1cccc(-c2ccc(-c3nnc(CCCc4ccc5cccnc5n4)o3)cc2)c1 |
| 17.7 min | CNc1oc(-c2cccc3ccccc23)nc1C#N |
| 4.2 min | CC(=O)c1c(C)[nH]c(C(=O)Nc2cccc([S+](=O)([O-])Nc3ccccc3)c2)c1C |
| 29.2 min | O=C1C(c2ccc(C(F)(F)F)cc2)=C(Nc2ccc(Cl)cc2)c2ccccc21 |
| 8.63 min | Nc1cc2nc3ccccc3oc-2cc1=O |
| > 30 min | CCCCOc1ccc(CC(=O)NO)cc1 |
| 20 min | O=C(Nc1nc(-c2ccccc2)cs1)c1ccncc1NS(=O)(=O)c1ccc(C(F)(F)F)cc1 |
| 24 min | Fc1ccc(Nc2nc(-c3ccncc3)cc3ccccc23)cc1F |
| 17 min | CC(=O)c1c(C)n(-c2ccccc2)c2ccc(O)cc12 |
| 1.55 min | COc1ccc(C)cc1Nc1c2c(nc3ccccc13)CCC2 |
| 6.2 min | CCOc1ccc(CCNC(=O)c2cc3sccc3n2CCN2CCN(C)CC2)cc1OCC |
| > 30 min | CCCCNC(=O)CN1CCN(c2ncc(NC(=O)c3ccc(Cl)cc3)cc2C(=O)O)CC1 |
| 2.8 min | CC1(C)CC2CC(C)(CN2S(=O)(=O)c2ccc(C(=O)Nc3cccc(S(=O)(=O)N4CCOCC4)c3)cc2)C1 (stereo unspecified) |
| 2.5 min | Cc1cc(-c2nnc3n2CCCCC3)c(C)n1-c1ccc([N+](=O)[O-])cc1 |
| > 30 min | Cc1ccc(-n2ncc3c(Nc4cccc(C(=O)O)c4)ncnc32)cc1 |
| 2.33 min | CC(C)(C)c1ccc(C(=O)Nc2ccc3c(c2)CCCN3C(=O)c2cccs2)cc1 |
